Assay results: patent publication US12213978B2, “Madrasin-derivative compounds, composition and uses thereof for treating cancer” (INSTITUT GUSTAVE ROUSSY, priority 2018, dated 2025)

Tests used:
Solubility in water = format: physicochemical
B16F10 WT cells = test: Re-challenge of tumor-free mice at day 100 with B16F10 WT cells; format: in vivo, mouse; details: mice with complete tumor regression after treatment, re-challenged 100 days later, left flank
Text: (§1) Growth curve of MCA205 globin-SL8-intron cells and B16F10 WT cells inoculated at day 100 into the right and the left flank, respectively, of C57BL/6 mice which experienced complete tumor regression after treatment with Madra.HCl.
(§2) Finally, mice which were inoculated with MCA205 tumor cells expressing the Globin-intron-SL8 construct, and that experienced complete tumor regression after treatment with Madra.HCl as described above were re-challenged 100 days later with MCA205 tumor cells expressing the Globin-intron-SL8 construct on the right flank and with B16F10 tumor cells on the left flank.

[1] = test system: MCA205 sarcoma cells expressing the globin-SL8-intron construct; test: Tumor challenge: MCA205 globin-SL8-intron tumors in immunocompetent C57BL/6 mice; format: in vivo, mouse; details: for survivors: 120 days after tumor inoculation
Procedure: (§3) Wild type MCA205 sarcoma cells or MCA205 sarcoma cells expressing the globin-SL8-intron construct (MCA205 globin-SL8-intron) were subcutaneously inoculated into the flank of immunocompetent C57BL/6 mice subsequently injected intraperitoneally with 20 mg/kg or 40 mg/kg of Madra.HCl at day 4, 7, 10 and 14 post tumor inoculation. Tumor size was assessed every 3 to 4 days until the established ethical endpoints were reached. The panel C represents the growth curve of MCA205 sarcoma cells expressing the globin-SL8-intron construct (MCA205 globin-SL8-intron), the panel D represents the tumor size at day 25. The panel E represents the growth curve of Wild type MCA205 sarcoma cells (MCA205 WT), the panel F represents the tumor size at day 21. Data are given as mean±SEM. *p<0.05, **p<0.01 (ANOVA with Tukey's multiple comparison test comparing all groups).
(§4) Wild type MCA205 sarcoma cells or MCA205 sarcoma cells expressing the globin-SL8-intron construct (MCA205 globin-SL8-intron) were subcutaneously inoculated into the flank of immunocompetent C57BL/6 mice subsequently injected intraperitoneally with 20 mg/kg of EYP59 at day 4, 7, 10 and 14 post tumor inoculation. Tumor size was assessed every 3 to 4 days until the established ethical endpoints were reached (A). The upper panel B represents the growth curve of MCA205 sarcoma cells expressing the globin-SL8-intron construct (MCA205 globin-SL8-intron), the lower panel B represents the tumor size at day 23. The upper panel C represents the growth curve of Wild type MCA205 sarcoma cells (MCA205 WT), the lower panel C represents the tumor size at day 19. The panel D represents the growth curve of Wild type MCA205 sarcoma cells (MCA205 WT) in immunodeficient nu/nu mice with the same settings as previously described for the immunocompetent mice. Data are given as mean±SEM. *p<0.05, **p<0.01 (ANOVA with Tukey's multiple comparison test comparing all groups).
(§5) C57Bl/6J female mice are obtained from Harlan Laboratories Ltd, Switzerland. 7 week-old mice are injected subcutaneously into the right flank with 1.10^5 MCA205 sarcoma or B16F10 melanoma cells or 1.5.10^5 MCA205 globin-SL8-intron or B16F10 globin-SL8-intron cells. Sarcoma cells are injected in 100 μL sterile PBS while melanoma cells are injected in 50:50 PBS:Matrigel to prevent tumor cell dissemination. Madra.HCl is injected 4, 7, 10 and 14 days post tumor inoculation, in 100 μL H2O+[…] (2-Hydroxypropyl)-β-cyclodextrin (w/v). In the same manner EYP59 (compound 7) is injected 4, 7, 10 and 14 days post tumor inoculation, in 100 μL H2O. Area of the tumor is recorded every 3 to 4 days until the tumor reaches the ethical end points. […] Results are expressed as mean±SEM. *p<0.05, **P<0.01, ***P<0.001 (ANOVA with Tukey's multiple comparison test comparing all groups).

[2] = test system: Wild type MCA205 sarcoma cells; test: Tumor challenge: wild type MCA205 tumors in immunocompetent C57BL/6 mice; format: in vivo, mouse
Procedure: as §3, §4
Wild type MCA205 sarcoma cells were subcutaneously inoculated into the flank of immunocompetent C57BL/6 mice subsequently injected intratumorally with 2.5 mg/kg of EYP59 at day 4, 7, 10 and 14 post tumor inoculation or intravenously with 5 mg/kg of EYP59 at day 4, 7, 10 and 14 post tumor inoculation. The upper panel A represents the growth curve of wild type MCA205 sarcoma cells, the lower panel A represents the tumor size at day 21. The upper panel B represents the growth curve of wild type MCA205 sarcoma cell, the lower panel B represents the tumor size at day 25. Data are given as mean±SEM. *p<0.05, **p<0.01 (ANOVA with Tukey's multiple comparison test comparing all groups).
as §5

[3] = test system: B16F10 melanoma cells expressing the intron-derived SL8 antigen; test: T-cell assay: B3Z specific T-cell activation by B16F10 cells expressing the intron-derived SL8 antigen; format: cell-based, mouse
Procedure: (§6) MCA205 mouse sarcoma cell line is cultured at 37° C. under 5% CO2 in RPMI 1640 medium (Life Technologies) in the presence of 1% glutamine, 1% sodium pyruvate, 1% non-essential amino-acids, 1% penicillin/streptomycin and 10% FBS (Life Technologies). B16F10 mouse melanoma cell line is cultured at 37° C. under 5% CO2 in DMEM medium (Life Technologies) containing 1% glutamine, 1% penicillin/streptomycin and 10% FCS under standard conditions. Stable MCA205-Globin-SL8-intron cell line are cultured under the same condition as MCA205 cell line with additional 500 μg/ml G418 (Life Technologies) for selection. Stable B16F10-Globin-SL8-intron cell line are cultured under the same condition as B16F10 cell line with additional 500 μg/ml G418 (Life Technologies) for selection. The SL8/Kb-specific (B3Z) T-cell reporter hybridoma are cultured at 37° C. under 5% CO2 in RPMI 1640 medium (Life Technologies) in the presence of 1% L-glutamine, 1% penicillin/streptomycin, 50 μM β-mercaptoéthanol and 10% FCS.
(§7) MCA205 and B16F10 mouse cell lines are transfected with the plasmid YFP-Globin-SL8-intron or with the PCDNA3 empty plasmid (negative control) with the transfection reagent jetPRIME (Ozyme) or GeneJuice (Millipore) respectively according to each manufacturer protocol. Twenty-four hours after transfection, cells are treated with different doses of Madrasin (Sigma SML 1409), Madra.HCl (3·HCl) or the different compounds herein cited. Cells are then washed three times with PBS 1× and 5.10^4 tumor cells are co-cultured with 1.10^5 B3Z hybridoma in a 96-well plate. In positive control wells, 4 μg/ml of synthetic peptide SL8 is added. Cells are then incubated overnight at 37° C. with 5% CO2. The plate is centrifuged at 1200 rpm for 5 min, cells are washed twice with PBS 1× and lysed for 5 min at 4° C. under shaking in 0.2% TritonX-100, 0.2% DTT, 0.5M K2HPO4, 0.5M KH2PO4. The lysate is centrifuged at 3000 rpm for 10 min and the supernatant is transferred to a 96-well optiplate (OptiPlaque-96, PerkinElmer). A revelation buffer containing 10 mM MgCl2, 11.2 mM β-mercaptoethanol, 0.0015% IGEPAL® CA-630 and 40 μM 4-Methylumbelliferyl β-D-Galactopyranoside (MUG) in PBS is added and the plate is incubated at room temperature for 3 hours. Finally, the β-galactosidase activity is measured using the FLUOstar OPTIMA (BMG LABTECH Gmbh, 30 Offenburg, Germany). Results are expressed as mean±SEM. *P<0.05, **P<0.01, ***P<0.001 (unpaired student t test).

[4] = test system: MCA205 globin-SL8-intron cells; test: Re-challenge of tumor-free mice at day 100 with MCA205 globin-SL8-intron cells; format: in vivo, mouse; details: mice with complete tumor regression after treatment, re-challenged 100 days later, right flank
Text: as §1, §2

[5] = test system: MCA205 sarcoma cells expressing the intron-derived SL8 antigen; test: T-cell assay: B3Z specific T-cell activation by MCA205 cells expressing the intron-derived SL8 antigen; format: cell-based, mouse
Procedure: as §6, §7

[6] = test system: Wild type MCA205 sarcoma cells; test: Tumor challenge: wild type MCA205 tumors in immunodeficient nu/nu mice; format: in vivo, mouse; details: 20 mg/kg
Procedure: as §4
In order to assess the requirement of the immune response for this effect, inventors tested the impact of 20 mg/kg EYP59 treatment in immunodeficient nu/nu mice with the same settings as previously described and observed that it has no effect on the tumor growth (FIG. 7D).

SF3B1 = SF3B1 (Homo sapiens, UniProt O75533+Q7RTV0); details: cited from earlier work

Structure (SMILES): COc1ccc2c(C)nc(Nc3nc(C)c(C)c(=O)[nH]3)nc2c1.Cl [Madra.HCl, Madrasin hydrochloride]
- solubility in water (Solubility in water): able to be dissolved in water
- tumor growth after re-challenge (B16F10 WT cells): grew over time
- survivors ([1]; 20 mg/kg intraperitoneally): around 15%
- reduction of tumor growth ([1]; 20 mg/kg intraperitoneally, day 27 after challenge): 50%
- survivors ([1]; 40 mg/kg intraperitoneally): around 25%
- reduction of tumor growth ([2]; 20 mg/kg intraperitoneally, day 21 after challenge): 40%
- reduction of tumor growth ([2]; 40 mg/kg intraperitoneally, day 21 after challenge): 40%
- PTPs-dependent antigen presentation (B3Z T-cell activation) ([3]; B16F10, 5 μM or 10 μM, dose dependent): increase
- tumor growth after re-challenge [4]: did not grow
- PTPs-dependent antigen presentation (B3Z T-cell activation) ([5]; MCA205, 5 μM or 10 μM, dose dependent): increase

Structure (SMILES): Cc1nc(Nc2nc(C)c3ccc(OP(=O)(O)O)cc3n2)[nH]c(=O)c1C [EYP59, Sodium 2-((4,5-dimethyl-6-oxo-1,6-dihydropyrimidin-2-yl)amino)-4-methylquinazolin-7-yl Phosphate]
- reduction of tumor growth ([1]; 20 mg/kg intraperitoneally, day 23 after challenge): 85%
- reduction of tumor growth ([2]; 2.5 mg/kg intratumorally, day 21 after challenge): 75%
- reduction of tumor growth ([2]; 5 mg/kg intravenously, day 25 after challenge): 80%
- reduction of tumor growth ([2]; 20 mg/kg intraperitoneally, day 19 after challenge): 70%
- PTP-SL8 presentation (B3Z T-cell activation) ([3]; B16F10, 60 μM, O/N): increase
- effect on the tumor growth [6]: no effect
- PTP-SL8 presentation (B3Z T-cell activation) ([5]; MCA205, 60 μM, O/N): increase

Structure (SMILES): CC[C@H](O)[C@@H](C)[C@H]1O[C@@H]1C[C@@](C)(O)/C=C/C=C(\C)[C@H]1OC(=O)C[C@H](O)CC[C@@](C)(O)[C@@H](OC(=O)N2CCN(C3CCCCCC3)CC2)/C=C/[C@@H]1C [E7107]
- outcome of testing in human (SF3B1): stopped because of problems of toxicity
